Results from patent US20150329896A1, “N-END RULE PROTEASE ACTIVITY […] AND USES THEREOF” (priority 2010, published 2015).
Peptide text beside a SMILES is read from it. * marks the point of attachment. Cbz = O=C(OCc1ccccc1)*

Test system: proteasome
Assay type: cell-based

CC(C)C[C@@H](C=O)NC(=O)[C@H](CC(C)C)NC(=O)[C@H](CC(C)C)NC(=O)OCc1ccccc1 [MG132] (Cbz-Leu-Leu-Leu-aldehyde) was tested, and the “level of C-terminal (P9-luciferase) fragment produced by BoNT/A proteolysis” value was “accumulated”.
